According to patent publication US20250282785A1, “PYRROLIDINONE DERIVATIVES AS INHIBITORS OF NF KAPPA B INDUCING KINASE” (priority 2022, published 2025):

Key:
[1] = tested on: p-IKKα levels in L363 (NIK translocated multiple myeloma) cells; experiment: Effect of compounds on p-IKKα levels in L363 cells (AlphaLISA SureFire Ultra); assay type: cell-based; conditions: Homo sapiens, L-363; L363 cells, BAFF stimulated, MG132, 6 h; average of values; read-out: Assay 2 IC50
Protocol: Biological Assay 2: Effect of Compounds on p-IKKα Levels in L363 (NIK Translocated Multiple Myeloma) Cells
All compounds tested were dissolved and serially diluted in DMSO, 1:3 dilution for 11 points in an Echo compatible plate. 100% DMSO is added to columns 12 and 24 of the plate to serve as high and low signal controls. This compound plate was used to spot 20 nl of compound or DMSO into a Greiner 384 well TC plate (781080). Final DMSO concentration was […] (v/v) in cell assays. Human L363 cells (ATCC) were cultured in RPMI 1640 medium supplemented with GlutaMax, non-essential amino acids, sodium pyruvate and 10% fetal bovine serum. Cells were routinely maintained at densities of 0.2×10^6 cells per ml −2×10^6 cells per ml at 37° C. in a humidified 5% CO2 atmosphere incubator. Cells were passaged twice a week splitting back to obtain the low density. The day before the assay, cells were washed twice in HBSS, resuspended in DMEM+0.5% IgG and protease free BSA (Jackson Immuno Research Laboratories), +/−250 ng/ml recombinant human B-cell activating factor (BAFF/BLyS/TNFSF13B) and incubated overnight at 37° C. in a humidified 5% CO2 atmosphere (bulk stimulation with or without BAFF). The next day, cell concentration was adjusted to 1×10^7 cells/ml in DMEM+/−250 ng/ml BAFF+/−10 uM MG132 and plated at 10 ul/well into compound or DMSO spotted 384 well TC plates. Seeded cells were incubated at 37° C. in a humidified 5% CO2 atmosphere for 6 h. After 6 h, plates were removed from the incubator and cell lysis was achieved by the addition of 2.5 μl 5× lysis buffer containing protease and phosphatase inhibitors, followed by shaking on a plate shaker at room temperature for 15 min. At the end of this incubation, lysed cells were sequentially treated and incubated with acceptor and donor bead mixes according to the manufacturer's protocol for a 1 plate/2-incubation suspension cell assay (AlphaLISA SureFire Ultra p-IKKα (Ser 176/180) Assay Kit (Perkin ElmeR). Plates were read using an EnVision® Multilabel Plate Reader (Perkin ElmeR). Within an experiment, a concentration response curve for each compound was run in duplicate. Signal obtained in the test wells was normalized using high signal (BAFF stimulated cells, DMSO, MG132) and low signal (unstimulated cells, DMSO) controls. To determine the IC50, a sigmoidal curve was fitted to the plot of % inhibition versus Log10 compound concentration.

[2] = biological target: Recombinant Human NF-Kappab-Inducing Kinase (NIK/MAP3K14) (Homo sapiens, UniProt Q99558); experiment: Inhibition of auto-phosphorylation of recombinant human NIK/MAP3K14 (AlphaScreen); assay type: biochemical; conditions: NIK/MAP3K14 auto-phosphorylation, 5 microM ATP, 1 nM enzyme, 2 h at 25° C.; average of values; read-out: Assay 1 IC50
Sequence of Recombinant Human NF-Kappab-Inducing Kinase (NIK/MAP3K14) (Q99558 whole entry): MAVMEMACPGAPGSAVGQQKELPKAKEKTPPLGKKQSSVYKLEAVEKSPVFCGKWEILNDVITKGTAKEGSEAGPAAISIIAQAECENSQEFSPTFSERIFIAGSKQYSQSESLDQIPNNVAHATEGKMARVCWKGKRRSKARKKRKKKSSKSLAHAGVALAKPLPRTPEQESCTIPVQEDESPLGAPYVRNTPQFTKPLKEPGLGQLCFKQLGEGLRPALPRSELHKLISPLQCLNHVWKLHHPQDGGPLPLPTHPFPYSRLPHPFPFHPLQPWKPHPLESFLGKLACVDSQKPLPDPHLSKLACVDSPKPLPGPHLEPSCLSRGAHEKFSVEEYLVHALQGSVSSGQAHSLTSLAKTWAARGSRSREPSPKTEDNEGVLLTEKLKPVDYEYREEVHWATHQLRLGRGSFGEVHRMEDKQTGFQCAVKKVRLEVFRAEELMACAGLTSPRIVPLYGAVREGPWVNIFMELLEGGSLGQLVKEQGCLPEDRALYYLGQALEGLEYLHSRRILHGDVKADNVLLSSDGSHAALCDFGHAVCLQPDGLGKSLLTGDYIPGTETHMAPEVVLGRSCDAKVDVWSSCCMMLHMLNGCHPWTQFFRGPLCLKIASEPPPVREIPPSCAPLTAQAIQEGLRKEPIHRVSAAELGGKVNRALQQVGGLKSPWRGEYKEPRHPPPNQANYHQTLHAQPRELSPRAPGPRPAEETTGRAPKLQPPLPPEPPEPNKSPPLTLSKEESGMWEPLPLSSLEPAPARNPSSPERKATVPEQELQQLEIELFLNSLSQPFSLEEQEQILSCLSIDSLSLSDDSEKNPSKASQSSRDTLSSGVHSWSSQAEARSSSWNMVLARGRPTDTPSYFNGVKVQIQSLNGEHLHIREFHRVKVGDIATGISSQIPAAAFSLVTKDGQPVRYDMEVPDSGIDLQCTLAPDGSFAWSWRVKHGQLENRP
Protocol: Biological Assay 1: Inhibition of Auto-Phosphorylation of Recombinant Human NF-Kappab-Inducing Kinase (NIK/MAP3K14) Activity (AlphaScreen®)
NIK/MAP3K14 auto-phosphorylation activity was measured using the AlphaScreen® ((αscreen) format (Perkin ElmeR). All compounds tested were dissolved in dimethyl sulfoxide (DMSO) and further dilutions were made in assay buffer. Final DMSO concentration was 0.7% (v/v) in assays. Assay buffer was 50 mM Tris pH 7.5 containing 1 mM EGTA (ethylene glycol tetraacetic acid), 1 mM DTT (dithiothreitol), 0.1 mM Na3VO4, 5 mM MgCl2, 0.01% Tween® 20. Assays were carried out in 384 well Proxiplates (Perkin ElmeR). Incubations consisted of compound, 5 microM Adenosine-5′-triphosphate (ATP), and 1 nM NIK/MAP3K14. Incubations were initiated by addition of GST-tagged NIK/MAP3K14 enzyme, carried out for 2 h at 25° C. and terminated by addition of stop buffer containing anti-phospho-IKK Ser176/180 antibody. Protein A Acceptor and Glutathione-donor beads were added before reading using an EnVision® Multilabel Plate Reader (Perkin ElmeR). Signal obtained in the wells was normalized using high (full enzyme activity, 0.7% DMSO) and low controls (no enzyme activity, 0.7% DMSO, no ATP). IC50's were determined by fitting a sigmoidal curve to % inhibition of control versus Log10 compound concentration.

SMILES | IC50 [1] [nM] | IC50 [2] [nM]
CN1CCC(O)(c2cc(-c3cccc(-c4c[nH]c5ncccc45)c3)on2)C1=O (racemic) [Example 9, (R,S)-3-(5-(3-(1H-Pyrrolo[2,3-b]pyridin-3-yl)phenyl)isoxazol-3-yl)-3-hydroxy-1-methylpyrrolidin-2-one] | > 501 | 100 to 500
CN1CCC(O)(c2cn(-c3cccc(-c4nc(C(N)=O)c5ccccc5n4)c3)cn2)C1=O (racemic) [Example 19, (R,S)-2-(3-(4-(3-Hydroxy-1-methyl-2-oxopyrrolidin-3-yl)-1H-imidazol-1-yl)phenyl)quinazoline-4-carboxamide] | > 501 | < 100
CN1CCC(O)(c2cc(-c3cccc(-c4nccc(C(N)=O)n4)c3)on2)C1=O (racemic) [Example 161, (R,S)-2-(3-(3-(3-Hydroxy-1-methyl-2-oxopyrrolidin-3-yl)isoxazol-5-yl)phenyl)pyrimidine-4-carboxamide] | > 501 | < 100
CN1CCC(O)(c2cc(-c3cccc(-c4ncc5ccnc(N)c5n4)c3)on2)C1=O (racemic) [Example 165] | > 501 | < 100
CN1CCC(O)(c2cc(-c3cccc(-n4nc(C(N)=O)c5ccccc54)c3)on2)C1=O (racemic) [Example 167, (R,S)-1-(3-(3-(3-Hydroxy-1-methyl-2-oxopyrrolidin-3-yl)isoxazol-5-yl)phenyl)-1H-indazole-3-carboxamide] | 100 to 500 | < 100
CN1CCC(O)(c2cc(-c3cccc(Nc4nc5c(N)ncnc5s4)c3)on2)C1=O (racemic) [Example 176, (R,S)-3-(5-(3-((7-Aminothiazolo[5,4-d]pyrimidin-2-yl)amino)phenyl)isoxazol-3-yl)-3-hydroxy-1-methylpyrrolidin-2-one] | > 501 | > 501
CN1CC[C@@](O)(c2cc(C3CCCN(c4ccc5ncnc(N)c5n4)C3)no2)C1=O (mixture of isomers) [Example 201, (3R)-3-(3-(1-(4-Aminopyrido[3,2-d]pyrimidin-6-yl)piperidin-3-yl)isoxazol-5-yl)-3-hydroxy-1-methylpyrrolidin-2-one] | > 501 | < 100
CN1CC[C@](O)(c2ncc(-c3cccc(-c4cccc(C(N)=O)n4)c3)s2)C1=O (single isomer, unassigned) [Example 28] | > 501 | 100 to 500
CN1CC[C@@](O)(c2cnn(-c3cccc(-c4cccc(C(N)=O)n4)c3)c2)C1=O (single isomer, unassigned) [Example 29] | > 501 | > 501
CN1CC[C@@](O)(c2cc(-c3cccc(-c4cccc(C(N)=O)n4)c3)n(C)n2)C1=O (single isomer, unassigned) [Example 30] | > 501 | > 501
CN1CC[C@@](O)(c2cc(-c3cccc(-c4cccc(C(N)=O)n4)c3)[nH]n2)C1=O (single isomer, unassigned) [Example 31] | > 501 | 100 to 500
[2H]c1nc(N)c2nc(-c3cccc(-c4cnc([C@@]5(O)CCN(C)C5=O)s4)c3)ccc2n1 (single isomer, unassigned) [Example 32] | > 501 | < 100
[2H]c1nc(N)c2nc(-c3cccc(-c4nc([C@]5(O)CCN(C)C5=O)cs4)c3)ccc2n1 (single isomer, unassigned) [Example 33] | > 501 | > 501
[2H]c1nc(N)c2nc(-c3cccc(-c4n[nH]c([C@]5(O)CCN(C)C5=O)n4)c3)ccc2n1 (single isomer, unassigned) [Example 34] | > 501 | > 501
[2H]c1nc(N)c2nc(-c3cccc(-c4cc([C@@]5(O)CCN(C)C5=O)n[nH]4)c3)ccc2n1 (single isomer, unassigned) [Example 37] | > 501 | > 501
[2H]c1nc(N)c2nc(-c3cccc(-c4cc([C@]5(O)CCN(C)C5=O)n[nH]4)c3)ccc2n1 (single isomer, unassigned) [Example 38] | > 501 | < 100
[2H]c1nc(N)c2nc(-c3cccc(-c4ncc([C@]5(O)CCN(C)C5=O)o4)c3)ccc2n1 (single isomer, unassigned) [Example 39] | > 501 | > 501
[2H]c1nc(N)c2nc(-c3cccc(-c4ncc([C@@]5(O)CCN(C)C5=O)o4)c3)ccc2n1 (single isomer, unassigned) [Example 40] | > 501 | > 501
[2H]c1nc(N)c2nc(-c3cccc(-c4nc([C@]5(O)CCN(C)C5=O)co4)c3)ccc2n1 (single isomer, unassigned) [Example 41] | > 501 | > 501
[2H]c1nc(N)c2nc(-c3cccc(-c4cc([C@]5(O)CCN(C)C5=O)nn4C)c3)ccc2n1 (single isomer, unassigned) [Example 43] | > 501 | 100 to 500
[2H]c1nc(N)c2nc(-c3cccc(-c4cc([C@@]5(O)CCN(C)C5=O)nn4C)c3)ccc2n1 (single isomer, unassigned) [Example 44] | > 501 | > 501
Cc1cc(N2CCC[C@@H](c3cc([C@]4(O)CCN(C)C4=O)on3)C2)nc2c(N)ncnc12 (single isomer, unassigned) [Example 199] | > 501 | < 100
Cc1cc(N2CCC[C@H](c3cc([C@]4(O)CCN(C)C4=O)on3)C2)nc2c(N)ncnc12 (single isomer, unassigned) [Example 200] | > 501 | < 100
CN1CC[C@@](O)(c2cc([C@@H]3CCCN(c4ccc5ncnc(N)c5n4)C3)no2)C1=O (single isomer, unassigned) [Example 202] | > 501 | < 100
CN1CC[C@@](O)(c2cc([C@H]3CCCN(c4ccc5ncnc(N)c5n4)C3)no2)C1=O (single isomer, unassigned) [Example 203] | > 501 | < 100
CN1CC[C@@](O)(c2cc(-c3cccc(-c4sc(Br)nc4C(N)=O)c3)no2)C1=O (single isomer, unassigned) [Example 214] | > 501 | > 501
CN1CC[C@@](O)(c2cc(-c3cccc(-c4nc5c(c(C(N)=O)n4)C4CCC(C5)O4)c3)[nH]n2)C1=O (stereo in doubt) [Example 174, (5R,8S)-2-(3-(5-((R)-3-Hydroxy-1-methyl-2-oxopyrrolidin-3-yl)-1H-pyrazol-3-yl)phenyl)-6,7,8,9-tetrahydro-5H-5,8-epoxycyclohepta[d]pyrimidine-4-carboxamide] | > 501 | 100 to 500
Cc1nc(N)c2nc(-c3cccc(-c4cc([C@]5(O)CCN(C)C5=O)on4)c3)ccc2n1 [Example 1, (R)-3-(3-(3-(4-Amino-2-methylpyrido[3,2-d]pyrimidin-6-yl)phenyl)isoxazol-5-yl)-3-hydroxy-1-methylpyrrolidin-2-one] | 100 to 500 | < 100
[2H]c1nc(N)c2nc(-c3cccc(-c4cc([C@]5(O)CCN(C)C5=O)on4)c3)ccc2n1 [Example 2, (R)-3-(3-(3-(4-Aminopyrido[3,2-d]pyrimidin-6-yl-2-d)phenyl)isoxazol-5-yl)-3-hydroxy-1-methylpyrrolidin-2-one] | 100 to 500 | < 100
